Activity, IC50 and viability data for two compounds are collected here from ChEMBL document CHEMBL3817739, “Synthesis and cytotoxic evaluation of several oleanolic aciduracil/thymine conjugates” (Medchemcomm, 2016).

Active and inactive are the calls of the source. No cut-off for these calls is given here.

For experiment [1], the system named is HepG2. Kind of experiment: Disruption of mitochondrial membrane potential in human HepG2 cells assessed as mitochondrial membrane potential at 2 uM after 24 hrs by Rhodamine 123 staining based flow cytometry (reference value: 86.2%). The experiment is classed as functional.
The test system of a further experiment is A549. The experiment is described as follows: Cytotoxicity against human A549 cells assessed as inhibition of cell proliferation after 72 hrs by MTT assay. The experiment is classed as functional, cell-based. Particulars: A549, 72 h.
For experiment [2], the system named is HepG2. The experiment is described as follows: Cell cycle arrest in human HepG2 cells assessed as accumulation at G2/M phase at 4 uM after 48 hrs by propidium iodide staining based flow cytometry (reference value: 13.83%). The experiment is classed as functional.
In experiment [3] the test system is HepG2. Kind of experiment: Induction of apoptosis in human HepG2 cells assessed as viable cells at 4 uM after 24 hrs by Annexin V-FITC/propidium iodide staining based flow cytometry (reference value: 93.2%). Particulars: HepG2, 24 h, read-out: Activity. Format: functional.
Experiment [4] deals with HepG2. Kind of experiment: Induction of apoptosis in human HepG2 cells assessed as late apoptotic cells at 2 uM after 24 hrs by Annexin V-FITC/propidium iodide staining based flow cytometry (reference value: 2.7%). Format: functional.
Experiment [5] has as its system HepG2. The experiment is described as follows: Induction of apoptosis in human HepG2 cells assessed as necrotic cells at 2 uM after 24 hrs by Annexin V-FITC/propidium iodide staining based flow cytometry (reference value: 2.7%). Format: functional.
The test system of experiment [6] is HepG2. Kind of experiment: Induction of apoptosis in human HepG2 cells assessed as early apoptotic cells at 2 uM after 24 hrs by Annexin V-FITC/propidium iodide staining based flow cytometry (reference value: 1.36%). The experiment is classed as functional.
In experiment [7] the test system is HepG2. Kind of experiment: Cytotoxicity against human HepG2 cells assessed as inhibition of cell proliferation after 72 hrs by MTT assay. Format: functional, cell-based. Particulars: HepG2, 72 h.
Experiment [8] is described as follows: Cytotoxicity against human PC3 cells assessed as inhibition of cell proliferation after 72 hrs by MTT assay. The experiment is classed as functional, cell-based, PC-3. Particulars: Homo sapiens, PC-3, 72 h; read-out: IC50.
Experiment [9] relates to HepG2. The experiment is described as follows: Cell cycle arrest in human HepG2 cells assessed as accumulation at G1 phase at 2 uM after 48 hrs by propidium iodide staining based flow cytometry (reference value: 60.65%). Format: functional.
Experiment [10] relates to HepG2. Kind of experiment: Cell cycle arrest in human HepG2 cells assessed as accumulation at G1 phase at 4 uM after 48 hrs by propidium iodide staining based flow cytometry (reference value: 60.65%). The experiment is classed as functional.
Experiment [11] relates to HepG2. Kind of experiment: Cell cycle arrest in human HepG2 cells assessed as accumulation at G1 phase at 3 uM after 48 hrs by propidium iodide staining based flow cytometry (reference value: 60.65%). The experiment is classed as functional.
Experiment [12] concerns HepG2. The experiment is described as follows: Disruption of mitochondrial membrane potential in human HepG2 cells assessed as mitochondrial membrane potential at 4 uM after 24 hrs by Rhodamine 123 staining based flow cytometry (reference value: 86.2%). Format: functional.
The subject of experiment [13] is HepG2. The experiment is described as follows: Cell cycle arrest in human HepG2 cells assessed as accumulation at S phase at 3 uM after 48 hrs by propidium iodide staining based flow cytometry (reference value: 25.52%). The experiment is classed as functional.
A further experiment has as its system MCF7. Kind of experiment: Cytotoxicity against human MCF7 cells assessed as inhibition of cell proliferation after 72 hrs by MTT assay. The experiment is classed as functional, cell-based. The settings on record: MCF7, 72 h.
For experiment [14], the system named is HepG2. The experiment is described as follows: Induction of apoptosis in human HepG2 cells assessed as caspase 9 activation at 4 uM using FITC-LEHD-FMK as probe after 24 hrs by flow cytometry (reference value: 4.4%). The experiment is classed as functional.
Experiment [15] has as its system HepG2. The experiment is described as follows: Induction of apoptosis in human HepG2 cells assessed as necrotic cells at 4 uM after 24 hrs by Annexin V-FITC/propidium iodide staining based flow cytometry (reference value: 2.7%). The experiment is classed as functional.
The test system of experiment [16] is HepG2. The experiment is described as follows: Induction of apoptosis in human HepG2 cells assessed as late apoptotic cells at 4 uM after 24 hrs by Annexin V-FITC/propidium iodide staining based flow cytometry (reference value: 2.7%). The experiment is classed as functional.
The subject of experiment [17] is HepG2. Kind of experiment: Induction of apoptosis in human HepG2 cells assessed as karyopyknosis and chromatin condensation at 2 to 4 uM after 24 hrs by Hoechst 33258 staining based fluorescence microscopy. The experiment is classed as functional, cell-based.
Experiment [18] has as its system HepG2. The experiment is described as follows: Disruption of mitochondrial membrane potential in human HepG2 cells assessed as mitochondrial membrane potential at 3 uM after 24 hrs by Rhodamine 123 staining based flow cytometry (reference value: 86.2%). Format: functional.
The test system of experiment [19] is HepG2. The experiment is described as follows: Induction of morphological changes in human HepG2 cells assessed as chromatin condensation and fragmentation at 2 to 4 uM after 24 hrs by acridine orange/ethidium bromide double staining based fluorescence microscopy. Format: functional, cell-based.
The test system of experiment [20] is HepG2. Kind of experiment: Cell cycle arrest in human HepG2 cells assessed as accumulation at S phase at 4 uM after 48 hrs by propidium iodide staining based flow cytometry (reference value: 25.52%). The experiment is classed as functional.
The subject of experiment [21] is HepG2. The experiment is described as follows: Induction of apoptosis in human HepG2 cells assessed as viable cells at 2 uM after 24 hrs by Annexin V-FITC/propidium iodide staining based flow cytometry (reference value: 93.2%). Format: functional. Particulars: HepG2, 24 h, read-out: Activity.
For experiment [22], the system named is HepG2. Kind of experiment: Induction of apoptosis in human HepG2 cells assessed as caspase 3 activation at 4 uM using FITC-DEVD-FMK as probe after 24 hrs by flow cytometry (reference value: 3.3%). The experiment is classed as functional.
The subject of experiment [23] is HepG2. Kind of experiment: Cell cycle arrest in human HepG2 cells assessed as accumulation at G2/M phase at 3 uM after 48 hrs by propidium iodide staining based flow cytometry (reference value: 13.83%). The experiment is classed as functional.
Experiment [24] in a line: Cytotoxicity against human BGC823 cells assessed as inhibition of cell proliferation after 72 hrs by MTT assay. The settings on record: BGC-823, 72 h. Format: functional, cell-based.
For experiment [25], the system named is HepG2. Kind of experiment: Induction of apoptosis in human HepG2 cells assessed as early apoptotic cells at 4 uM after 24 hrs by Annexin V-FITC/propidium iodide staining based flow cytometry (reference value: 1.36%). Format: functional.
For experiment [26], the system named is HepG2. The experiment is described as follows: Cell cycle arrest in human HepG2 cells assessed as accumulation at S phase at 2 uM after 48 hrs by propidium iodide staining based flow cytometry (reference value: 25.52%). The experiment is classed as functional.
The test system of experiment [27] is HepG2. Kind of experiment: Disruption of mitochondrial membrane potential in human HepG2 cells after 24 hrs by Rhodamine 123 staining based flow cytometry. The experiment is classed as functional, cell-based.
Experiment [28] has as its system HepG2. The experiment is described as follows: Cell cycle arrest in human HepG2 cells assessed as accumulation at G2/M phase at 2 uM after 48 hrs by propidium iodide staining based flow cytometry (reference value: 13.83%). Format: functional.

With `CC1(C)CC[C@]2(C(=O)OCCCCCCn3ccc(=O)[nH]c3=O)CC[C@]3(C)C(=CC[C@@H]4[C@@]5(C)CC[C@H](O)C(C)(C)[C@@H]5CC[C@]43C)[C@@H]2C1`, the Activity in the experiment on HepG2 [1] came to 77.7%; in the experiment on HepG2 [2] it was 3.25%; in the experiment with HepG2 [4], 7.75%; with HepG2 [5], 2.36%; in the experiment on HepG2 [6], 1.91%; in the experiment with HepG2 [9], 92.75%. Moreover, the Activity with HepG2 [10] worked out at 82.48%; in the experiment with HepG2 [11] it was 88.09%; in the experiment on HepG2 [12], 49.4%; with HepG2 [13], 10.18%; in the experiment with HepG2 [14] it was 27.9%; with HepG2 [15], 4.32%. In addition, the Activity worked out at 17.7% with HepG2 [16]; 67% with HepG2 [18]; 14.27% in the experiment on HepG2 [20]; 31% in the experiment with HepG2 [22]; 1.73% in the experiment on HepG2 [23]; 1.83% in the experiment with HepG2 [25]. Also, the figures for the Activity in the experiment on HepG2 [26], with HepG2 [27] and with HepG2 [28] were 6.51%, “Dose-dependent effect” and 0.74%, respectively. Also, the 50% inhibitory concentration (IC50) in the experiment on A549 came out at 3.16 µM; in the experiment on HepG2 [7], 3.98 µM; in experiment [8], 0.18 µM; with MCF7, 2.75 µM; in [24], 1.28 µM. Also, in the experiment on HepG2 [3], the viability at 4 µM worked out at 76.1%. Moreover, the outcome in the experiment on HepG2 [17] and with HepG2 [19] was Active. In the experiment with HepG2 [21], the viability at 2 µM came to 88%.
As for `Cc1cn(CCCCOC(=O)[C@]23CCC(C)(C)C[C@H]2C2=CC[C@@H]4[C@@]5(C)CC[C@H](O)C(C)(C)[C@@H]5CC[C@@]4(C)[C@]2(C)CC3)c(=O)n(CCCCOC(=O)[C@]23CCC(C)(C)C[C@H]2C2=CC[C@@H]4[C@@]5(C)CC[C@H](O)C(C)(C)[C@@H]5CC[C@@]4(C)[C@]2(C)CC3)c1=O`, the IC50 in the experiment with A549 is less than 0.1 µM; with HepG2 [7], 3.02 µM; in [8], 1.28 µM; in the experiment on MCF7, 3.69 µM; in experiment [24] it was 16 µM.
